Measurements from ChEMBL document CHEMBL5352455, “Discovery of novel N-acylpyrazoles as potent and selective thrombin inhibitors” (Eur J Med Chem, 2023).

Experiments:
[1] = in vitro; conditions: CD-1, mouse, plasma
Description: Stability in CD-1 mouse plasma assessed as half life

[2] = in vitro; conditions: human, plasma
Description: Stability in human plasma assessed as half life

[3] = in vitro; conditions: Sprague-Dawley, rat, plasma
Description: Stability in Sprague-Dawley rat plasma assessed as half life

[4] = AUC in CD-1 mouse at 0.5 mg/kg, iv measured after 24 hrs by LC-MS analysis; assay type: ADME, organism-based; design: time 24 hrs, dose 0.5 mg/kg, route iv; conditions: in vivo
[5] = Half life in CD-1 mouse at 5 mg/kg, po measured after 24 hrs by LC-MS analysis; assay type: ADME, organism-based; conditions: in vivo
[6] = Cmax in CD-1 mouse at 5 mg/kg, po measured after 24 hrs by LC-MS analysis; assay type: ADME, organism-based; design: time 24 hrs, dose 5 mg/kg, route po; conditions: in vivo
[7] = AUC in CD-1 mouse at 5 mg/kg, po measured after 24 hrs by LC-MS analysis; assay type: ADME, organism-based; design: dose 5 mg/kg, time 24 hrs, route po; conditions: in vivo
[8] = Half life in CD-1 mouse at 0.5 mg/kg, iv measured after 24 hrs by LC-MS analysis; assay type: ADME, organism-based; conditions: in vivo
[9] = Oral bioavailability in CD-1 mouse at 5 mg/kg measured after 24 hrs by LC-MS analysis; assay type: ADME, organism-based; conditions: in vivo
[10] = Tmax in CD-1 mouse at 5 mg/kg, po measured after 24 hrs by LC-MS analysis; assay type: ADME, organism-based; conditions: in vivo

| half-life [1] [min] | half-life [2] [min] | SMILES | also measured |
| --- | --- | --- | --- |
|  | 69 | O=C(c1ccsc1)n1nc(-c2ccccc2F)nc1NCc1cccs1 |  |
| 4.1 | 30 | COc1ccccc1C(=O)n1nc(-c2ccccn2)nc1NCc1ccc(Cl)s1 | half-life [3]: 1.5 min |
| 350 |  | CC(C)(C)C(=O)n1nc(-c2ccc[nH]c2=O)cc1NCc1ccc(Cl)s1 | AUC at 24 h [4]: 300 ng·h/mL; half-life [5]: 354 min; Cmax [6]: 127 ng/mL; AUC at 24 h [7]: 713 ng·h/mL; half-life [8]: 42 min; bioavailability [9]: 22.8%; Tmax [10]: 42 min |
|  | 48 | COc1ccccc1C(=O)n1nc(-c2ccccc2F)nc1NCc1cccs1 |  |
| 160 |  | COc1ccccc1C(=O)n1nc(C2CCOCC2)cc1NCc1ccc(Cl)s1 |  |
| 43 |  | COc1ccccc1C(=O)n1nc(C2CCNCC2)cc1NCc1ccc(Cl)s1 |  |

Further lines, the compound ahead of its results:

| SMILES | half-life [1] [min] | half-life [2] [min] | also measured |
| --- | --- | --- | --- |
| C[C@@H]1CNc2c(cccc2S(=O)(=O)N[C@@H](CCCNC(=N)N)C(=O)N2CC[C@@H](C)C[C@@H]2C(=O)O)C1 | > 120 | > 120 | half-life [3]: > 120 min |
| CC(C)(C)C(=O)n1nc(C2CCCNC2)cc1NCc1ccc(Cl)s1 (stereo unspecified) | 910 |  |  |
| CC(C)(CO)C(=O)n1nc(C2CCNCC2)c(F)c1NCc1ccc(Cl)s1 | 44 |  |  |
| CC(C)(C)C(=O)n1nc(-c2cccnn2)cc1NCc1ccc(Cl)s1 |  | 51 |  |
